# “And” between values parts separate entries of the source, which are not always exact repeats. Equal values may be shown once.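 Briefly, cells in 96-well plates were exposed to five compound concentrations for 48 h, and endpoints were estimated by linear interpolation. GI50 = concentration required for 50% inhibition of growth.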 The source made the active and inactive calls. No stated cut-off is given here; in the data, active = GI50 up to about 1.1 µM and inactive = higher.
# Key:
# Test in all cases: DTP human tumour cell line panel, 48 h
# MCF7 = test system: MCF7
# HL-60 = test system: HL-60
# RXF 393 = test system: RXF 393
# MOLT-4 = test system: MOLT-4
# MDA-MB-435 = test system: MDA-MB-435
# SN12C = test system: SN12C
# PC-3 = test system: PC-3
# SK-OV-3 = test system: SK-OV-3
# NCI-H226 = test system: NCI-H226
# SF-539 = test system: SF-539
# OVCAR-5 = test system: OVCAR-5
# HOP-92 = test system: HOP-92
# A498 = test system: A498
# KM12 = test system: KM12
# MDA-MB-231 = test system: MDA-MB-231
# CAKI-1 = test system: CAKI-1
# UACC-62 = test system: UACC-62
# IGROV-1 = test system: IGROV-1
# UACC-257 = test system: UACC-257
# SF-268 = test system: SF-268
SMILES,GI50 (MCF7),GI50 (HL-60),GI50 (RXF 393),GI50 (MOLT-4),GI50 (MDA-MB-435),GI50 (SN12C),GI50 (PC-3),GI50 (SK-OV-3),GI50 (NCI-H226),GI50 (SF-539),GI50 (OVCAR-5),GI50 (HOP-92),GI50 (A498),GI50 (KM12),GI50 (MDA-MB-231),GI50 (CAKI-1),GI50 (UACC-62),GI50 (IGROV-1),GI50 (UACC-257),GI50 (SF-268)
Cc1c(Cl)cccc1NC(=O)CC1Sc2ccccc2NC1=O (stereo unspecified),11 µM (inactive),12.3 µM (inactive) and 8.43 µM (inactive),8.39 µM (inactive) and 16 µM (inactive),24.4 µM (inactive) and 26.5 µM (inactive),2.82 µM (inactive),25.1 µM (inactive) and 47.2 µM (inactive),27.4 µM (inactive),16.4 µM (inactive) and 19.3 µM (inactive),19.1 µM (inactive) and 17.9 µM (inactive),17.9 µM (inactive) and 20.9 µM (inactive),48.9 µM (inactive) and 51.8 µM (inactive),17.7 µM (inactive) and 33 µM (inactive),18.3 µM (inactive) and 16.5 µM (inactive),11 µM (inactive) and 16.6 µM (inactive),14 µM (inactive),36.3 µM (inactive) and 42.2 µM (inactive),,,,
C=CC(=O)N1C/C(=C\c2ccccc2)C(=O)/C(=C/c2ccccc2)C1,0.5 µM (active),0.71 µM (active),2.15 µM (inactive),0.458 µM (active),0.53 µM (active),1.67 µM (inactive),1.69 µM (inactive),2.58 µM (inactive),3.85 µM (inactive),1.58 µM (inactive),2.49 µM (inactive),3.62 µM (inactive),2 µM (inactive),0.989 µM (active),2 µM (inactive),2.83 µM (inactive),1.19 µM (inactive),1.97 µM (inactive),1.92 µM (inactive),1.97 µM (inactive)
Cc1cc(OCc2nnc3n2N=C(c2cc(F)c(Cl)cc2Cl)/C(=C/c2ccc(Cl)cc2)S3)ccc1Cl,23.3 µM (inactive),1.91 µM (inactive),17 µM (inactive),0.337 µM (active),24.2 µM (inactive),,21.4 µM (inactive),50.9 µM (inactive),46 µM (inactive),44.9 µM (inactive),24.1 µM (inactive),18.1 µM (inactive),24.2 µM (inactive),22.9 µM (inactive),29.7 µM (inactive),18.6 µM (inactive),,20.9 µM (inactive),38.5 µM (inactive),22.8 µM (inactive)
Nc1ncnc2c1ncn2CC(O)C(=O)O (stereo unspecified),> 100 µM (inactive),> 100 µM (inactive),> 100 µM (inactive),> 100 µM (inactive),> 100 µM (inactive),> 100 µM (inactive),> 100 µM (inactive),> 100 µM (inactive),> 100 µM (inactive),> 100 µM (inactive),> 100 µM (inactive),> 100 µM (inactive),> 100 µM (inactive),> 100 µM (inactive),> 100 µM (inactive),> 100 µM (inactive),> 100 µM (inactive),> 100 µM (inactive),> 100 µM (inactive),> 100 µM (inactive)
Clc1ccc(C2=CC(c3ccccc3)N3C(=N[C@H]4CCCC[C@@H]43)N2)cc1 (stereo partly specified),3.55 µM (inactive),2.82 µM (inactive),2.47 µM (inactive),2.64 µM (inactive),7.57 µM (inactive),,6.56 µM (inactive),14.3 µM (inactive),8.85 µM (inactive),6.08 µM (inactive),11.5 µM (inactive),4.68 µM (inactive),10.4 µM (inactive),2.07 µM (inactive),9.08 µM (inactive),13.9 µM (inactive),5.82 µM (inactive),3.39 µM (inactive),12.9 µM (inactive),6.14 µM (inactive)
CN(C)c1ccc(C2CC(c3ccc4ccccc4c3O)=NN2c2ccc([N+](=O)[O-])cc2[N+](=O)[O-])cc1 (stereo unspecified),23.8 µM (inactive),,41.2 µM (inactive),22.8 µM (inactive),17.5 µM (inactive),50.7 µM (inactive),23.6 µM (inactive),> 100 µM (inactive),89.5 µM (inactive),50.9 µM (inactive),> 100 µM (inactive),> 100 µM (inactive),68.4 µM (inactive),24.4 µM (inactive),22 µM (inactive),> 100 µM (inactive),14.3 µM (inactive),26.2 µM (inactive),58.5 µM (inactive),98.4 µM (inactive)
CC1(C)OC(=O)C(C#N)=C1C[n+]1ccccc1,> 10 µM (inactive),> 10 µM (inactive),> 10 µM (inactive),> 10 µM (inactive),> 10 µM (inactive),> 10 µM (inactive),> 10 µM (inactive),> 10 µM (inactive),> 10 µM (inactive),> 10 µM (inactive),> 10 µM (inactive),> 10 µM (inactive),> 10 µM (inactive),> 10 µM (inactive),> 10 µM (inactive),> 10 µM (inactive),,> 10 µM (inactive),> 10 µM (inactive),> 10 µM (inactive)
Cc1cn(S(=O)(=O)c2ccccc2)c2c(OCc3ccccc3)cc(NS(C)(=O)=O)cc12,6.98 µM (inactive),4.52 µM (inactive),14.6 µM (inactive),3.45 µM (inactive),9.64 µM (inactive),13.7 µM (inactive),3.92 µM (inactive),40.9 µM (inactive),16.1 µM (inactive),38.8 µM (inactive),61.8 µM (inactive),27.2 µM (inactive),8.15 µM (inactive),10.9 µM (inactive),9.66 µM (inactive),72.3 µM (inactive),17.9 µM (inactive),33 µM (inactive),10.1 µM (inactive),14 µM (inactive)
O=P(O)(O)C(NCC(O)CN1CCOCC1)P(=O)(O)O (stereo unspecified),> 100 µM (inactive),> 100 µM (inactive),> 100 µM (inactive),> 100 µM (inactive),> 100 µM (inactive),,> 100 µM (inactive),> 100 µM (inactive),> 100 µM (inactive),> 100 µM (inactive),> 100 µM (inactive),> 100 µM (inactive),> 100 µM (inactive),> 100 µM (inactive),> 100 µM (inactive),> 100 µM (inactive),> 100 µM (inactive),> 100 µM (inactive),> 100 µM (inactive),> 100 µM (inactive)
O=C(O)c1ccc(OCc2nc3cc(C(F)(F)F)ccc3nc2-c2ccccc2)cc1,45 µM (inactive),40 µM (inactive),36.8 µM (inactive),,55.2 µM (inactive),60.4 µM (inactive),53.8 µM (inactive),,91.4 µM (inactive),32.1 µM (inactive),> 100 µM (inactive),29 µM (inactive),> 100 µM (inactive),30.1 µM (inactive),56.4 µM (inactive),5.52 µM (inactive),37.6 µM (inactive),56 µM (inactive),78.7 µM (inactive),41.8 µM (inactive)
C=CCc1ccccc1CC1(OCC)OC(=O)c2ccccc21 (stereo unspecified),> 100 µM (inactive),,> 100 µM (inactive),48.8 µM (inactive),28.8 µM (inactive),87.7 µM (inactive),83 µM (inactive),> 100 µM (inactive),> 100 µM (inactive),> 100 µM (inactive),> 100 µM (inactive),33.8 µM (inactive),> 100 µM (inactive),,72.8 µM (inactive),> 100 µM (inactive),> 100 µM (inactive),> 100 µM (inactive),60.7 µM (inactive),> 100 µM (inactive)
Cc1n[nH]c(=O)n1C1CCCC1,> 100 µM (inactive),> 100 µM (inactive),> 100 µM (inactive),> 100 µM (inactive),> 100 µM (inactive),> 100 µM (inactive),> 100 µM (inactive),,> 100 µM (inactive),> 100 µM (inactive),> 100 µM (inactive),> 100 µM (inactive),> 100 µM (inactive),> 100 µM (inactive),> 100 µM (inactive),> 100 µM (inactive),,> 100 µM (inactive),> 100 µM (inactive),> 100 µM (inactive)
O=c1cc(C(F)(F)F)c2cc3c(cc2o1)NCCC3,3.16 µM (inactive),> 100 µM (inactive),< 0.01 µM (active),> 100 µM (inactive),> 100 µM (inactive),> 100 µM (inactive),85.3 µM (inactive),,> 100 µM (inactive),> 100 µM (inactive),> 100 µM (inactive),46.1 µM (inactive),> 100 µM (inactive),> 100 µM (inactive),> 100 µM (inactive),86.9 µM (inactive),,97.3 µM (inactive),> 100 µM (inactive),24.5 µM (inactive)
O=C1c2ccccc2-c2oc(=O)c3ccccc3c21,> 100 µM (inactive),> 100 µM (inactive),> 100 µM (inactive),> 100 µM (inactive),> 100 µM (inactive),> 100 µM (inactive),> 100 µM (inactive),> 100 µM (inactive),> 100 µM (inactive),> 100 µM (inactive),> 100 µM (inactive),> 100 µM (inactive),> 100 µM (inactive),> 100 µM (inactive),> 100 µM (inactive),> 100 µM (inactive),> 100 µM (inactive),32.7 µM (inactive),> 100 µM (inactive),
